Reference: PubChem BioAssay AID1963862 (Molecular Pharmacology Branch, DTP, NCI, 2024)

System: KRAS patient-derived spheroids with HUVEC/MSC, viability
Assay: Anticancer human tumor 941728-121-R-J1-PDC patient-derived lung adenocarcinoma cell line growth inhibition [KRAS2]
Details: for IC50: curve of first compound; for viability, T/C: stronger effect = lower value
Excerpt: Multicellular complex tumor spheroid response to RAS pathway inhibitors in combination with a targeted agents in patient-derived cell lines with oncogenic KRAS variants from multiple cancer types
A high-throughput screen of multi-cell type tumor spheroids was designed to identify active combinations of targeted small molecules and KRAS pathway inhibitors. Complex spheroids include a stromal component modeled by human endothelial cells (HUVEC) and fibroblasts modeled by human mesenchymal stem cells (MSCs). The concentration ranges selected for each drug and investigational agent were based upon clinically achievable concentrations if the clinical Cmax of the agent was known.
Compounds. The drugs and investigational agents: BI-3406 (NSC825286), BAY-293 (NSC824723), batoprotafib (TNO155; NSC825523), sotorasib (AMG 510; NSC818433), MRTX1257 (NSC819558), elimusertib (BAY 1895344; NSC800525), molibresib (GSK525762; NSC774829), temuterkib (LY3214996; NSC803410), venetoclax (NSC766270), alisertib (NSC759677), olaparib (NSC753686), talazoparib (NSC767125), erdafitinib (NSC781556), ipatasertib (NSC767898), cabozantinib (NSC761068), nintedanib (NSC756659), abemaciclib (NSC768073), docetaxel (NSC628503), trametinib (NSC758246), and sapanisertib (NSC764658) were obtained from the National Cancer Institute (NCI) Developmental Therapeutics Program Chemical Repository. The FDA-approved anticancer drug set is available from the Developmental Therapeutics Program. […] The stock solutions were prepared in dimethyl sulfoxide (DMSO, Sigma-Aldrich, St. Louis, MO, cat. D2650) at 800-fold the tested concentration and stored at -70 degrees C prior to their use. All drugs and investigational agents were tested over a range starting from a high concentration at or near the clinical Cmax and decreasing in half-log increments. If the clinical Cmax for an agent had not been determined, the highest concentration tested was 10 microM.
Cell Culture. All cells were maintained in an incubator at 37 degrees C and 5% CO2 with 95% humidity. The PDC lines were cultured according to standard operating procedures established by the NCI PDMR (https://pdmr.cancer.gov/sops/default.htm). Briefly, all PDCs were thawed and cultured in Matrigel-coated flasks prepared with a working solution of 1X Ham's F-12 nutrient mix, without supplementation (Invitrogen, Waltham, MA, cat. 11765054), 100 U/mL penicillin-streptomycin (Invitrogen, cat. 15140122), and 2.5% Matrigel (Corning Inc., Corning, NY, cat. 354248) for the first three passages. All PDCs were cultured in complete DMEM/F-12 media containing advanced DMEM/F-12 (Invitrogen, cat. 12634028), 4.9% defined fetal bovine serum, heat inactivated (HyClone Laboratories Inc., Logan, UT, cat. SH30070.03HI), 389 ng/mL hydrocortisone (Sigma-Aldrich, cat. H4001), 9.7 ng/mL human EGF recombinant protein (Invitrogen, cat. PHG0313), 23.4 microg/mL adenine (Sigma-Aldrich, cat. A2786), 97.3 U/mL penicillin-streptomycin (Invitrogen, cat. 15140122), 1.9 mM L-glutamine (Invitrogen, cat. 25030081), and 9.7 microM Y-27632 dihydrochloride (Tocris Bioscience, Bristol, United Kingdom, cat. 1254). The PDCs were cultured in complete DMEM/F12 media without 9.7 microM Y-27632 dihydrochloride for at least two passages prior to the screen. The established cell line HOP-62 was cultured in RPMI 1640 medium, HEPES (Invitrogen, cat. 22400105) with 10% defined fetal bovine serum (HyClone Laboratories Inc., cat. SH30070.03) and 2 mM L-glutamine (Invitrogen, cat. 25030081). The pooled donor HUVEC were cultured in endothelial cell growth medium 2 (PromoCell, Heidelberg, Germany, cat. C-22011) and the hMSC were cultured in mesenchymal stem cell growth medium 2 (PromoCell, cat. C-28009). For all experiments, HUVEC and hMSC were used at passages </=5, while the malignant cell lines were used at passages </=15. […]

[1] = second compound 0.1 µM, first compound 0.000316 µM
[2] = second compound 0.1 µM, first compound 0.001 µM
[3] = second compound 0.1 µM, first compound 0.00316 µM
[4] = second compound 0.1 µM, first compound 0.01 µM
[5] = second compound 0.1 µM, first compound 0.0316 µM
[6] = second compound 0.316 µM, first compound 0.000316 µM
[7] = second compound 0.316 µM, first compound 0.001 µM
[8] = second compound 0.316 µM, first compound 0.00316 µM
[9] = second compound 0.316 µM, first compound 0.01 µM
[10] = second compound 0.316 µM, first compound 0.0316 µM
[11] = second compound 1 µM, first compound 0.000316 µM
[12] = second compound 1 µM, first compound 0.001 µM
[13] = second compound 1 µM, first compound 0.00316 µM
[14] = second compound 1 µM, first compound 0.01 µM
[15] = second compound 1 µM, first compound 0.0316 µM
[16] = second compound 3.16 µM, first compound 0.000316 µM
[17] = second compound 3.16 µM, first compound 0.001 µM
[18] = second compound 3.16 µM, first compound 0.00316 µM
[19] = second compound 3.16 µM, first compound 0.01 µM
[20] = second compound 3.16 µM, first compound 0.0316 µM
[21] = second compound 10 µM, first compound 0.000316 µM
[22] = second compound 10 µM, first compound 0.001 µM
[23] = second compound 10 µM, first compound 0.00316 µM
[24] = second compound 10 µM, first compound 0.01 µM
[25] = second compound 10 µM, first compound 0.0316 µM
[26] = second compound 0.1 µM, first compound 0.1 µM
[27] = second compound 0.316 µM, first compound 0.1 µM
[28] = second compound 1 µM, first compound 0.1 µM
[29] = second compound 3.16 µM, first compound 0.1 µM
[30] = second compound 10 µM, first compound 0.1 µM
[31] = second compound 0.1 µM, first compound 0.316 µM
[32] = second compound 0.1 µM, first compound 1 µM
[33] = second compound 0.1 µM, first compound 3.16 µM
[34] = second compound 0.1 µM, first compound 10 µM
[35] = second compound 0.316 µM, first compound 0.316 µM
[36] = second compound 0.316 µM, first compound 1 µM
[37] = second compound 0.316 µM, first compound 3.16 µM
[38] = second compound 0.316 µM, first compound 10 µM
[39] = second compound 1 µM, first compound 0.316 µM
[40] = second compound 1 µM, first compound 1 µM
[41] = second compound 1 µM, first compound 3.16 µM
[42] = second compound 1 µM, first compound 10 µM
[43] = second compound 3.16 µM, first compound 0.316 µM
[44] = second compound 3.16 µM, first compound 1 µM
[45] = second compound 3.16 µM, first compound 3.16 µM
[46] = second compound 3.16 µM, first compound 10 µM
[47] = second compound 10 µM, first compound 0.316 µM
[48] = second compound 10 µM, first compound 1 µM
[49] = second compound 10 µM, first compound 3.16 µM
[50] = second compound 10 µM, first compound 10 µM
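Also: spheroids exposed to agents for seven days before readout.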

CC(=O)Nc1cccc(-n2c(=O)n(C3CC3)c(=O)c3c(Nc4ccc(I)cc4F)n(C)c(=O)c(C)c32)c1 + C=CC(=O)N1CCN(c2nc(=O)n(-c3c(C)ccnc3C(C)C)c3nc(-c4c(O)cccc4F)c(F)cc23)C(C)C1
IC50 (second compound 0.1 µM): < 0.1 nM
IC50 (second compound 0.316 µM): < 0.1 nM
IC50 (second compound 1 µM): < 0.1 nM
IC50 (second compound 3.16 µM): < 0.1 nM
IC50 (second compound 10 µM): < 0.1 nM
viability, T/C (second compound 0.1 µM, first compound 0.0001 µM): 27.9%
viability, T/C [1]: 26.2%
viability, T/C [2]: 20.3%
viability, T/C [3]: 21.6%
viability, T/C [4]: 19.6%
viability, T/C [5]: 19.3%
viability, T/C (second compound 0.316 µM, first compound 0.0001 µM): 26%
viability, T/C [6]: 25.4%
viability, T/C [7]: 24.1%
viability, T/C [8]: 22.9%
viability, T/C [9]: 20.2%
viability, T/C [10]: 19.3%
viability, T/C (second compound 1 µM, first compound 0.0001 µM): 27.5%
viability, T/C [11]: 28.3%
viability, T/C [12]: 24.2%
viability, T/C [13]: 23.6%
viability, T/C [14]: 22.3%
viability, T/C [15]: 20.4%
viability, T/C (second compound 3.16 µM, first compound 0.0001 µM): 27.3%
viability, T/C [16]: 30.1%
viability, T/C [17]: 26.9%
viability, T/C [18]: 25.9%
viability, T/C [19]: 28.6%
viability, T/C [20]: 23.4%
viability, T/C (second compound 10 µM, first compound 0.0001 µM): 35.8%
viability, T/C [21]: 31.4%
viability, T/C [22]: 36.3%
viability, T/C [23]: 36.2%
viability, T/C [24]: 29.6%
viability, T/C [25]: 29%

CC(C)n1nc(-c2ccc3oc(N)nc3c2)c2c(N)ncnc21 + C=CC(=O)N1CCN(c2nc(=O)n(-c3c(C)ccnc3C(C)C)c3nc(-c4c(O)cccc4F)c(F)cc23)C(C)C1
IC50 (second compound 0.1 µM): < 0.316 nM
IC50 (second compound 0.316 µM): < 0.316 nM
IC50 (second compound 1 µM): < 0.316 nM
IC50 (second compound 3.16 µM): < 0.316 nM
IC50 (second compound 10 µM): < 0.316 nM
viability, T/C [1]: 13.2%
viability, T/C [2]: 17%
viability, T/C [3]: 8.16%
viability, T/C [4]: 5.92%
viability, T/C [5]: 4.43%
viability, T/C [26]: 3.9%
viability, T/C [6]: 13.8%
viability, T/C [7]: 11.7%
viability, T/C [8]: 10.2%
viability, T/C [9]: 6.98%
viability, T/C [10]: 4.02%
viability, T/C [27]: 3.22%
viability, T/C [11]: 15%
viability, T/C [12]: 11%
viability, T/C [13]: 9.95%
viability, T/C [14]: 7.7%
viability, T/C [15]: 4.43%
viability, T/C [28]: 5.61%
viability, T/C [16]: 14.2%
viability, T/C [17]: 16.4%
viability, T/C [18]: 13.3%
viability, T/C [19]: 9.65%
viability, T/C [20]: 6%
viability, T/C [29]: 6.12%
viability, T/C [21]: 17.3%
viability, T/C [22]: 16.8%
viability, T/C [23]: 16.5%
viability, T/C [24]: 15.2%
viability, T/C [25]: 11.3%
viability, T/C [30]: 11.2%

COc1cc(Nc2ncc3c(n2)-c2ccc(Cl)cc2C(c2c(F)cccc2OC)=NC3)ccc1C(=O)O + C=CC(=O)N1CCN(c2nc(=O)n(-c3c(C)ccnc3C(C)C)c3nc(-c4c(O)cccc4F)c(F)cc23)C(C)C1
IC50 (second compound 0.1 µM): < 31.6 nM
IC50 (second compound 0.316 µM): < 31.6 nM
IC50 (second compound 1 µM): < 31.6 nM
IC50 (second compound 3.16 µM): < 31.6 nM
IC50 (second compound 10 µM): < 31.6 nM
viability, T/C [5]: 24.9%
viability, T/C [26]: 17.2%
viability, T/C [31]: 16%
viability, T/C [32]: 22.7%
viability, T/C [33]: 25.7%
viability, T/C [34]: 17.3%
viability, T/C [10]: 29.3%
viability, T/C [27]: 26.2%
viability, T/C [35]: 26.3%
viability, T/C [36]: 25.5%
viability, T/C [37]: 24.4%
viability, T/C [38]: 16.7%
viability, T/C [15]: 17.9%
viability, T/C [28]: 27.4%
viability, T/C [39]: 31%
viability, T/C [40]: 26.4%
viability, T/C [41]: 24.1%
viability, T/C [42]: 21%
viability, T/C [20]: 25.5%
viability, T/C [29]: 29.6%
viability, T/C [43]: 31.5%
viability, T/C [44]: 29%
viability, T/C [45]: 25.7%
viability, T/C [46]: 22.4%
viability, T/C [25]: 37%
viability, T/C [30]: 38.5%
viability, T/C [47]: 35.2%
viability, T/C [48]: 32%
viability, T/C [49]: 28.1%
viability, T/C [50]: 25.8%

COc1cc2nccc(Oc3ccc(NC(=O)C4(C(=O)Nc5ccc(F)cc5)CC4)cc3)c2cc1OC + C=CC(=O)N1CCN(c2nc(=O)n(-c3c(C)ccnc3C(C)C)c3nc(-c4c(O)cccc4F)c(F)cc23)C(C)C1
IC50 (second compound 0.1 µM): < 31.6 nM
IC50 (second compound 0.316 µM): < 31.6 nM
IC50 (second compound 1 µM): < 31.6 nM
IC50 (second compound 3.16 µM): < 31.6 nM
IC50 (second compound 10 µM): < 31.6 nM
viability, T/C [5]: 14.6%
viability, T/C [26]: 14.5%
viability, T/C [31]: 12.8%
viability, T/C [32]: 11.6%
viability, T/C [33]: 7.75%
viability, T/C [34]: 8.03%
viability, T/C [10]: 15%
viability, T/C [27]: 15.7%
viability, T/C [35]: 11.6%
viability, T/C [36]: 11.6%
viability, T/C [37]: 6.81%
viability, T/C [38]: 8.86%
viability, T/C [15]: 17.4%
viability, T/C [28]: 16.8%
viability, T/C [39]: 14.5%
viability, T/C [40]: 12.3%
viability, T/C [41]: 6.93%
viability, T/C [42]: 8.12%
viability, T/C [20]: 17.6%
viability, T/C [29]: 16.4%
viability, T/C [43]: 15.3%
viability, T/C [44]: 16.7%
viability, T/C [45]: 7.9%
viability, T/C [46]: 8.84%
viability, T/C [25]: 19.1%
viability, T/C [30]: 19.5%
viability, T/C [47]: 15.3%
viability, T/C [48]: 13%
viability, T/C [49]: 8.1%
viability, T/C [50]: 9.93%
